Read-outs that look alike come from different tables or passages of the source.
Assays:
CAL-27 cells [1] = assay: Hoechst 33342 staining, CAL-27; format: cell-based; settings: CAL-27, 24 h, working concentrations, vs NC
Protocol: (§1) After 24 h drug treatment at the predefined working concentrations, CAL-27 and SAS cells were dyed with 300 μL Hoechst 33342 staining (C1022, Beyotime, China) in the dark at 37 °C for 10 min. Then, the residual Hoechst 33342 staining was washed 3 times with 1 × phosphate-buffered saline (PBS, G4250-500ML, Servicebio, China). The images were then immediately examined under an inverted fluorescence microscope (CX23, Olympus, Japan).

[2] = tested on: MMP2 mRNA in CAL-27 cells; assay: RT-qPCR MMP2 mRNA, CAL-27; format: cell-based; settings: CAL-27, 24 h, vs control
Protocol: (§2) Equal amounts of RNA were reverse transcribed into cDNA using the Reverse Transcription Kit (AG11705, Accurate Biology, Guangzhou, China) following the manufacturer’s instructions. Quantitative PCR was performed on a QIAGEN Rotor-GeneQ system (9001862, QIAGEN, Hilden, Germany) with SYBR Green Pro Taq HS Premix II (AG11702, Accurate Biology, China).
(§3) The PCR protocol consisted of initial denaturation at 95 °C for 30 s, followed by 40 cycles of 95 °C for 5 s and 60 °C for 30 s. All reactions were performed in triplicate, with melting curve analysis confirming amplification specificity. The expression of the target genes was normalized to GAPDH, and fold changes were calculated in the manner of the 2^−ΔΔCT .

SAS cells [3] = assay: Hoechst 33342 staining, SAS; format: cell-based; settings: 24 h, working concentrations, vs NC
Protocol: as §1

SAS cells [4] = assay: Annexin V-FITC/PI flow cytometry apoptosis, SAS; format: cell-based; settings: 24 h, vs control
Protocol: (§4) After 24 h drug treatment at the predefined working concentrations, CAL-27 and SAS cells were trypsinized, centrifuged (200× g, 5 min, RT), and washed twice with 1 mL ice-cold PBS. Cell aliquots ((5–10) × 10^4 cells) were resuspended in 195 μL Annexin V-FITC binding buffer, followed by sequential addition of 5 μL Annexin V-FITC and 10 μL propidium iodide (PI) (BMS500FI-100, Thermo Fisher Scientific, Wien, Austria) with gentle mixing. After 10–20 min of incubation in darkness (20–25 °C) with intermittent resuspension (2–3 times), samples were placed on ice and analyzed within 1 h using a flow cytometer (CytExpert software [Version 2.4.0.28, Beckman Coulter, Brea, CA, USA]). Triplicate independent experiments were performed for statistical analysis.

MMP2 mRNA in SAS cells = assay: RT-qPCR MMP2 mRNA, SAS; format: cell-based; settings: vs control
Protocol: as §2, §3

COX-2 mRNA in SAS cells = assay: RT-qPCR COX-2 mRNA, SAS; format: cell-based; settings: working concentrations, 24 h, vs control
Protocol: as §2, §3

[5] = tested on: MMP9 mRNA in CAL-27 cells; assay: RT-qPCR MMP9 mRNA, CAL-27; format: cell-based; settings: CAL-27, 24 h, vs control
Protocol: as §2, §3

SAS cells [6] = assay: CCK-8 proliferation assay, SAS; format: cell-based
Protocol: (§5) The OSCC cell lines CAL-27 (STCC12901P, Servicebio, Wuhan, China) and SAS (CC0706, Cellcook, Guangzhou, China) were cultured in Dulbecco Modified Eagle Medium F12 (DMEM/F12) (G4610-500ML, Servicebio, Wuhan, China) supplemented with 10% fetal bovine serum (FBS) (AB-FBS-DIA1050, ABW, Shanghai, China) and 100 U/mL penicillin-streptomycin-gentamicin solution (G4014-100ML, Servicebio, Wuhan, China). VERO cells were cultured in DMEM (G4524-500ML, Servicebio, Wuhan, China) supplemented with 10% FBS (AB-FBS-DIA1050, ABW, China) and 100 U/mL penicillin–streptomycin–gentamicin solution (G4014-100ML, Servicebio, Wuhan, China). […] were maintained at 37 °C in a humidified 5% CO2 incubator. For experiments, 1 × 10^6 cells were seeded per T-25 culture flask.
(§6) CAL-27, SAS, and VERO cells were seeded in 96-well plates at a density of 5000 cells per well. At specified time intervals, 10 μL of Cell Counting Kit-8 (CCK-8) reagent (K1018, Apexbio, Boston, MA, USA) was added to each well and incubated for 2 h. Absorbance at 450 nm was measured using a microplate reader (Infinite M200 Pro, Tecan Group, Männedorf, Switzerland).

CAL-27 cells [7] = assay: CCK-8 proliferation assay, CAL-27; format: cell-based; settings: Homo sapiens
Protocol: as §5, §6

CAL-27 cells [8] = assay: Annexin V-FITC/PI flow cytometry apoptosis, CAL-27; format: cell-based; settings: CAL-27, 24 h, vs control
Protocol: as §4

COX-2 in SAS cells = assay: ELISA COX-2, SAS; format: cell-based; settings: working concentrations, vs control (compounds also vs CXB)
Protocol: With the aim of determining COX-2 concentrations in OSCC cell lines after treatment at the predefined working concentrations, we used a specialized ELISA kit (F0564-A, FANKEW, Shanghai, China), following the manufacturer’s instructions. Briefly, 40 μL of the sample dilution and 10 μL of the sample (sample final dilution is 5-fold) were added to testing sample wells and incubated for 30 min at 37 °C. After that, discard the liquid and wash the plate using washing buffer. Repeat 5 times, drying by patting. Subsequently, samples were incubated with 50 μL of HRP-conjugate reagent in each well for 30 min at 37 °C. Wash 5 times, then add Chromogen Solution A and B and incubate for 10 min at 37 °C. Lastly, 50 μL of stop solution was added to each well to stop the reaction, and the sample absorbance was measured using a microplate reader at 450 nm after adding stop solution within 15 min.

VERO cells = assay: CCK-8 cytotoxicity assay, VERO; format: cell-based, African green monkey; settings: Chlorocebus sabaeus; VERO, CCK-8, 24 h
Protocol: as §5, §6

Compound: Cc1ccc(-c2cc(C(F)(F)F)nn2-c2ccc(S(N)(=O)=O)cc2)cc1 [CXB, celecoxib, reference compound]
- apoptotic cells (Hoechst 33342, fluorescence microscopy) (CAL-27 cells [1]): significant increase
- MMP2 mRNA expression [2]: even lower
- apoptotic cells (Hoechst 33342, fluorescence microscopy) (SAS cells [3]): significant increase
- total apoptotic cell population (early and late apoptosis) (SAS cells [4]): comparable pro-apoptotic efficacy
- MMP2 mRNA expression (MMP2 mRNA in SAS cells): markedly suppressed
- COX-2 mRNA level (COX-2 mRNA in SAS cells): marked upregulation
- MMP9 mRNA expression [5]: even lower
- IC50 (SAS cells [6]; 24 h, read-out: IC50 (range)): 53.9 to 61.5 µM
- IC50 (SAS cells [6]; SAS, CCK-8, read-out: IC50 SAS): 57.6 µM
- IC50 (CAL-27 cells [7]; CAL-27, 24 h, read-out: IC50 (range), CAL-27, CCK-8, 24 h, given as a range): 52.4 to 61.9 µM
- IC50 (CAL-27 cells [7]; CAL-27, CAL-27, CCK-8, read-out: IC50 CAL-27): 57 µM
- total apoptotic cell population (early and late apoptosis) (CAL-27 cells [8]): comparable pro-apoptotic efficacy
- COX-2 level (ELISA) (COX-2 in SAS cells): no marked difference
- IC50 (VERO cells): 243 µM
